This is an account of results in patent publication US8604059B2, “Thioxanthene derivatives for the treatment of infectious diseases” (BKG Pharma APS, priority 2009, dated 2013).

Data set [1] concerns MT4 cells. Put plainly: Cytotoxic effect in uninfected MT4 cultures. It is filed as cell-based. As to conditions: read-out: CC50 A + C3 (1 μM); AZT in presence of compound 3 at 1 μM. As for the experimental part:
(§1) Compounds were examined for possible antiviral activity against strain IIIB of HIV-1 using MT4 cells as target cells. MT4 cells were incubated with virus (0.005 MOI) and growth medium containing the test dilutions of compound(s) for six days in parallel with virus-infected and uninfected control cultures without compound added. Expression of HIV in the cultures was indirectly quantified using the MTT assay as previously described. Compounds mediating less than 30% reduction of HIV expression were considered without biological activity. Compounds were tested in parallel for cytotoxic effect in uninfected MT4 cultures containing the test dilutions of compound as described above. Cultures for test of both antiviral activity and cytotoxic effect were set up in tripleduplicates, […] per culture in micro titre plates. A 30% inhibition of cell growth relative to control cultures was considered significant. The 50% inhibitory concentration was determined by interpolation from the plots of percent inhibition versus concentration of compound.
(§2) CC50 is defined as the inhibitory concentration that reduces cellular growth or viability of uninfected cells by 50%.

Data set [2] is described as follows: Cytotoxic effect in uninfected MT4 cultures. It is filed as cell-based. As to conditions: human, uninfected MT4 cells; single agent; uninfected MT4. As for the experimental part: as §1, §2
The test system of data set [3] is strain IIIB of HIV-1. Put plainly: Inhibition of HIV-1 replication in MT4 cells, MTT assay. It counts as cell-based. To be noted: Human immunodeficiency virus 1, IIIB. Here is the method:
The enhancing effect of compound 3 on anti-viral agents was studied by checkerboard combination studies exposing HIV infected cells to 0-3 μM anti-viral agent in the absence or presence of compound 3 in concentrations from 0 to 6 μM. Each experiment was repeated in tripleduplicate. MIC values represent the mean values of two separate experiments.
The HIV-1 strain HTLV-IIIB were propagated in H9 cells at 37° C., 5% CO2 using RPMI 1640 with 10% heat-inactivated foetal calf serum (FCS) and antibiotics (growth medium). Culture supernatant was filtered ([…]), aliquotted, and stored at −80° C. until use. The HIV-1 strain was obtained from NIH AIDS Research and Reference Program.
as §1
EC50 is defined as the effective concentration that inhibits 50% of viral production, 50% of viral infectivity, or 50% of the virus-induced cytopathic effect.
A general note: Formazan colour is commonly taken as a measure of viable cells.

The test system of data set [4] is Streptococci. Description: MIC on multiresistant and susceptible clinical isolates (Table 1b). To be noted: 8 multiresistant and 8 susceptible isolates. It counts as cell-based. As for the experimental part:
(§3) Cell growth was tested using the Minimal Inhibitory Concentration (MIC) susceptibility tests by use of the microdilution broth method in accordance to the NCCLS Guidelines (NCCLS Guidelines, Methods for Dilution Antimicrobial Susceptibility Tests for Bacteria That Grow Aerobically; Approved Standard, Sixth Edition, Volume 23; Number 2). The minimum inhibitory concentration (MIC), is defined as the lowest concentration of drug which inhibits growth of the test organism, in the sense that no visible growth is detected (total inhibition of growth). In example 2, MIC of the compounds used on fungal microorgansims was determined from the IC90 measurements according to NCCLS Guidelines.
(§4) A log phase culture of bacteria was diluted with fresh pre-warmed Mueller-Hinton medium and adjusted to a defined OD at 600 nm in order to give a final concentration of 1×10^4-5 bacteria/ml medium. The bacterial culture was transferred to microtiter-plates and culture was added to each well. Drug was added to the bacterial culture in the wells as two-fold dilution series of drug in order to give final concentrations ranging from 0.03 to 128 μg/ml. Trays were incubated at 37° C. by shaking in a robot analyzer, PowerWavex, software KC^4′ Kebo. Lab, Copenhagen, for 16 h and optical densities were measured at 600 nm during the incubation time in order to record growth curves. Wells containing bacterial culture without drug were used as controls to ensure correct inoculum size and bacterial growth during the incubation. Cultures were tested in order to detect contaminations. Each experiment was repeated in triplicate. MIC values represent the mean values of two separate triplicate experiments. Intra- and interassay variation was <5%.
(§5) Clinically relevant human bacterial isolates of Staphylococci, Streptococci, Micrococci and Gram negative species was cultured and assayed as described above for susceptibility towards the compounds listed in table 1b.

Data set [5] concerns Staphylococci, Micrococci. Including MRSA. Described as above. As to conditions: Micrococci incl. MRSA, 8 multiresistant and 8 susceptible isolates. It counts as cell-based. Here is the method: as §3, §4, §5
In data set [6] the test system is Gram negative sp. The data set is described as above. It counts as cell-based. To be noted: 8 multiresistant and 8 susceptible isolates. As for the experimental part:
as §3, §4, §5

Data set [7] deals with E. coli MDR clinical isolates. Put plainly: FIC index, synergy with antibiotics (Table 4a). It is filed as cell-based. As to conditions: 8 MDR E. coli, mean, compound at ¼ of MIC. As for the experimental part:
(§6) The effect of the compounds was tested according to the methods described in WO2005/105145. In brief, cell growth was tested using the MIC susceptibility tests by use of the microdilution broth method in accordance to the NCCLS Guidelines (NCCLS Guidelines, Methods for Dilution Antimicrobial Susceptibility Tests for Bacteria That Grow Aerobically; Approved Standard, Sixth Edition, Volume 23; Number 2).
(§7) The Fractional Inhibitory Concentration (FIC) index were calculated for each compound as described in WO2005/105145. Synergy was defined for Fractional Inhibitory Concentration (FIC) indices less than 0.5
E. coli: 8 in vivo-selected multidrug resistant clinical isolates of E. coli. Resistant to tetracycline, beta-lactams, fluoroquinolones, chloramphenicol and aminoglycoside

In data set [8] the test system is E. faecalis MDR/VRE clinical isolates. Put plainly: FIC index, synergy with antibiotics (Table 4a). It counts as cell-based, Enterococcus faecalis. As to conditions: 8 MDR/VRE E. faecalis, mean, compound at ¼ of MIC. As for the experimental part:
as §6, §7
Enterococcus faecalis: 8 multidrug resistant in vivo-selected clinical isolates. […] Expressing change in the cell wall precursor target as a major resistance mechanism (VanA gene expression).

In data set [9] the test system is Candida species. Put plainly: MIC on clinical isolates of Candida species, broth microdilution NCCLS M27-A (Table 3). It counts as cell-based. As to conditions: Candida species incl. fluconazole resistant; MIC = 90% growth inhibition. As for the experimental part:
The antibacterial effect of demethylated/dealkylated phenothiazine or thioxanthene compounds were studied by growth inhibition studies exposing cells to 0-32 μg/ml of drug. Each experiment was repeated in triplicate. MIC values represent the mean values of two separate triplicate experiments.
4 clinical isolates of Candida species (including 3 fluconazole resistant isolates) were subcultured for 24 h on Sabouraud glucose agar before susceptibility testing. Broth microdilution tests were performed according to NCCLS document M27-A (Ref: National Commitee for Clinical Laboratory Standards. (1997). Reference Method for Broth Dilution Antifungal Susceptibility Testing of Yeasts: Approved Standard M27-A. NCCLS, Wayne, Pa.). Microtitre plates were read spectrophotometrically at 530 nm, after mixing the wells by pipetting to resuspend yeast sediments. In this experiment, the MIC was defined as the lowest drug dilution resulting in 90% growth inhibition.
(In general: Dilution methods test growth across graded concentrations, often in twofold steps.)

For data set [10], the system named is Candida albicans. Put plainly: Synergy with fluconazole, broth microdilution NCCLS M27-A (Table 10). It is filed as cell-based. As for the experimental part: The isolates were subcultured for 24 h on Sabouraud glucose agar before susceptibility testing. Broth microdilution tests were performed according to NCCLS document M27-A (Ref: National Commitee for Clinical Laboratory Standards. (1997). Reference Method for Broth Dilution Antifungal Susceptibility Testing of Yeasts: Approved Standard M27-A. NCCLS, Wayne, Pa.) Microtitre plates were read spectrophotometrically at 530 nm, after mixing the wells by pipetting to resuspend yeast sediments. […] The Fractional Inhibitory Concentration (FIC) was calculated for the anti-infective agent alone and in combination with compound 3 and 4 (see table 4) as described above. Synergy was defined as a FIC index of <0.5.

Data set [11] relates to Enterococci sp. Description: MIC on multiresistant and susceptible clinical isolates of Enterococci (Table 2). To be noted: 8 multiresistant (VanA, VanB, HLAR, BLR,CR) and 8 susceptible isolates. It is filed as cell-based, Enterococcus faecalis and Enterococcus faecium. As for the experimental part:
as §3
as §4, with “Wells containing bacterial culture without drug were used as controls to ensure correct inoculum size and bacterial growth during the incubation. Cultures were tested in order to detect contaminations. Each experiment was repeated in triplicate. MIC values represent the mean values of two separate triplicate experiments. Intra- and interassay variation was <5%.” left out

The test system of data set [12] is S. aureus MRSA clinical isolates. Put plainly: FIC index, synergy with antibiotics (Table 4a). To be noted: with Dicloxacillin; 8 MRSA; mean; compound at ¼ of MIC. It is filed as cell-based, Staphylococcus aureus. As for the experimental part: as §6, §7
Staphylococcus aureus: 8 (MRSA) in vivo-selected clinical isolates. Resistant to methicillin and beta-lactam antibiotics. Susceptible to teicoplanin chloramphenicol, fosfomycin, netilmicin and vancomycin.

Structures are written as SMILES. Converted amounts (≈) assume the structure as drawn. Where two headings read alike, the source gives them in different places.

Usually CC50 stands for the concentration that lowers cell viability or growth by half. What is called EC50 is the midpoint of the concentration-response curve. Broadly, the MIC is the lowest concentration found to suppress growth.

Regarding `Cc1cn([C@H]2C[C@H](N=[N+]=[N-])[C@@H](CO)O2)c(=O)[nH]c1=O` [AZT, 3′-Azido-3′-deoxythymidine], the CC50 in data set [1] is more than 3 µM. This molecule also displayed a CC50 at 6 days in data set [2] of more than 3 µM. Further, the 50% effective concentration (EC50) amounted to 0.05 µM in [3] (144 h, single agent, MT4 cells, six days, read-out: EC50) and 0.01 µM in data set [3] (MT4, read-out: EC50 A + C3 (1 μM), AZT in presence of compound 3 at 1 μM).

As for `OCCN1CCC(CC/C=C2\c3ccccc3Sc3ccc(Cl)cc32)CC1` [Compound 4], the entries for the “MIC Mean” value in data set [4], in [5] and in data set [6] were 1 mg/L (≈ 2.5 µM), 1 mg/L (≈ 2.5 µM) and 3 mg/L (≈ 7.5 µM), respectively. Further, the FIC index in data set [7] (with Ampicillin) is listed as 0.44; in [7] (with Ciprofloxacin), 0.47; in data set [7] (with Gentamycin), 0.47; in data set [7] (with Tetracycline), 0.44; in data set [8] (with Ciprofloxacin), 0.34; in data set [8] (with Dicloxacillin), 0.34. Also, the values for the FIC index in data set [10] (in combination with fluconazole) and in [12] were 0.39 and 0.34, respectively. For the same molecule, the “MIC Mean (range)” value in data set [9] is recorded as 1.5 (0.125-2.0) μ/ml; in data set [11] it was 0.5 (0.125-1.0) μ/ml. In data set [10] (Candida albicans, compound alone, read-out: MIC Compound), the minimum inhibitory concentration (MIC) is 1.5 mg/L.
